In patent publication US20190254282A1, “Non-Leaching Surface Sanitizer and Wipe with Improved Washability and/or Absorbency” (Livinguard AG, priority 2016, published 2019):

Tests used:
Type in all cases: cell-based
[1] = tested on: bacteria (Escherichia coli, Staphylococcus aureus, Pseudomonas aeruginosa, and Salmonella enterica); test: Antimicrobial performance of treated textiles against bacteria (Experimental Examples 1); settings: 6% o.w.f. of the chemical; for efficiency in killing bacteria: polyester textile treated with one single agent; for efficiency for killing bacteria: cotton textile treated with one single agent
Description: (§1) All microbiological tests were performed with cultures of the bacteria Escherichia coli American Type Culture Collection (ATCC) 25922, Staphylococcus aureus ATCC 6538, Pseudomonas aeruginosa ATCC 15442, Salmonella enterica ATCC 10708, and of the fungi Candida albicans ATCC 10231, and Aspergillus Niger ATCC […].
(§2) With Experimental Examples 1, the effect of the application of different numbers of agents to the starting textile materials was studied. The agents applied to the cotton material were taken from the group of silver, PHMB, and propiconazole, which are the three most preferred antimicrobial agents for treating cellulosic textile materials. The agents applied to the polyester material were taken from the group of silver, propiconazole, and quaternary ammonium organosilane compounds, which are the three most preferred antimicrobial agents for treating synthetic textile materials.
(§3) The textiles were treated with (1) each of the agents from the respective group individually, (2) all three tuple combinations of agents from the respective groups, and (3) all three agents from the respective groups together. The total amount of the chemicals in all experiments was 6% o.w.f. Thus, where one single agent was applied to the textile, 6% o.w.f. of the respective chemical was used, where a combination of two agents was applied, 3% o.w.f. of each of the respective two chemicals was used, and where a combination of three agents was applied, 2% o.w.f. of each of the respective three chemicals was used.
(§4) The finishing process was as described above in the context of the working examples, but since no hydrophilic/stain release agent was applied, there was only one process cycle. The fabric was exhausted and then dried and cured in one single pass through the stenter, with the process parameters as described above.

[2] = tested on: fungi (Candida albicans and Aspergillus Niger); test: Antimicrobial performance of treated textiles against fungi (Experimental Examples 1); settings: 6% o.w.f. of the chemical
Description: as §1, §2, §3, §4

microorganisms = test: Tests made by the inventor on alternative metals and azoles adhered to textiles (results not reproduced)
[3] = polyester textile treated with one single agent
[4] = cotton textile treated with one single agent

Compound: CCCCCCCCCCCCCCCCCC[N+](C)(C)CCC[Si](OC)(OC)OC [Dimethyloctadecyl[3-(trimethoxysilyepropyl]ammonium chloride]
- efficiency in killing bacteria [1]: about equally efficient
- efficiency for killing fungi [2, 3]: not efficient

Compound: propiconazole [reference compound]
- efficiency for killing bacteria [1]: not efficient
- efficiency in killing bacteria [1]: about as efficient against bacteria as silver and quaternary ammonium organosilane
- efficiency for killing fungi [2, 4]: efficient
- efficiency for killing fungi [2, 3]: works well

Compound: silver
- antimicrobial performance compared with zinc and copper (microorganisms): considerably higher than that of zinc, and even much higher than that of copper
- efficiency for killing bacteria [1]: about equally efficient
- efficiency in killing bacteria [1]: about equally efficient
- efficiency for killing fungi [2, 4]: perform poorly
- efficiency for killing fungi [2, 3]: not efficient
